Data set [1] is described as follows: Dilution of PEG-400 or polysorbate-80 solution of sertraline base into 0.9% NaCl (precipitation test). The data set is classed as physicochemical. To be noted: for Observed Concentration after Dilution in Saline, after 15 min / Observed Concentration after Dilution in Saline, after 2 hr: 1 ml into 15 ml 0.9% NaCl pH 4.2. The protocol:
One ml of this test solution was added to 15 ml normal saline (0.9% NaCl, pH 4.2), and was stirred vigorously. […]

Data set [2] is described as follows: Precipitation studies: sertraline base solution in vehicle added to 0.1 N HCl or phosphate buffered saline pH 5.8. The data set is classed as physicochemical.
Description: Solution (a) is a simulated gastric fluid, and solution (b) is a simulated intestinal fluid.
PEG-400 is miscible with aqueous media, while Capmul® -MCM and safflower oil are not. One milliliter of the test solution was added to 10 mL of (a) 0.1 N HCl solution and (b) phosphate buffered saline (PBS) pH 5.8 and was stirred vigorously.
• Mobile phase: per liter of mobile phase: 270 mL of tetrahydrofuran, 230 mL of methanol and 400 mL of buffer. The buffer consisted of 25 mM triethylamine phosphate. It was prepared by adding 1.7 mL of phosphoric acid and 3.5 mL of tirethylamine to 1 liter of water.
Assay in data set [3]: not given
This is another data set of the same source.

For data set [4] the following is noted: in vivo.
For data set [5] the following is noted: known oral immediate-release dosage forms; cited from earlier work.
Data set [6] in a line: Chloride-induced gelling of saturated aqueous sertraline salt solutions. The data set is classed as physicochemical.
[7] abbreviates: PEG-400, 50 mgA/ml in vehicle, expected 3.1.
Setting [8] is: PEG-400, 100 mgA/ml in vehicle, expected 6.25.
Where [9] appears, read: Polysorbate-80, 50 mgA/ml in vehicle, expected 3.1.
Setting [10] is: Polysorbate-80, 100 mgA/ml in vehicle, expected 6.25.

Values after ≈ are worked out from the molar mass of the structure shown. Where a name gives a salt, the structure may show the parent alone.

Consider 5 compounds from patent EP0980241B1 (Pfizer Products Inc., priority 1997, dated 1999).

As usually defined, the solubility is how much of the substance goes into solution per volume. For `CN[C@H]1CC[C@@H](c2ccc(Cl)c(Cl)c2)c2ccccc21` [Free base, sertraline free base], the “Equilibrium solubility in Olive oil” value was above 50 mgA/ml and the “Equilibrium solubility in Safflower oil” value is listed as above 50 mgA/ml. In data set [1] (setting [7]), the “Observed Concentration after Dilution in Saline, after 15 min” value (from here on “Observed Concentration … after 15 min”) was determined as 0.9 mgA/ml and the “Observed Concentration after Dilution in Saline, after 2 hr” value (“Observed Concentration … after 2 hr” for short) was found to be 2.1 mgA/ml. In data set [1] (setting [8]), the “Observed Concentration … after 15 min” value is recorded as 0.7 mgA/ml and the “Observed Concentration … after 2 hr” value is on record as 1.8 mgA/ml. The “Precipitation upon addition to a NaCl solution” value in data set [1] (PEG-400 solution) is reported as “a portion of the sertraline precipitates”. In data set [1] (setting [9]), the “Observed Concentration … after 15 min” value amounted to 3.1 mgA/ml and the “Observed Concentration … after 2 hr” value was found to be 3.1 mgA/ml. For the same compound, in data set [1] (setting [10]), the “Observed Concentration … after 15 min” value is reported as 6.25 mgA/ml and the “Observed Concentration … after 2 hr” value is given as 6.25 mgA/ml. For the same compound, the “Precipitation upon addition to a NaCl solution” value in data set [1] (Polysorbate-80 solution) is recorded as “no precipitation occurs”. Further, in data set [2] (Capmul MCM 50 mgA/mL, 1 mL into 10 mL 0.1 N HCl, 15 minutes), the “Concentration of sertraline in non-aqueous layer” value was determined as 44 mgA/ mL. Besides, the “Concentration of sertraline in aqueous layer” value in data set [2] (Capmul MCM 50 mgA/mL, 1 mL into 10 mL 0.1 N HCl, 15 minutes, expected 5.00) stood at 0.38 mgA/ mL. The “Concentration of sertraline in non-aqueous layer” value in data set [2] (Capmul MCM 50 mgA/mL, 1 mL into 10 mL 0.1 N HCl, 120 minutes) amounted to 44.2 mgA/ mL. Further, the “Concentration of sertraline in aqueous layer” value in data set [2] (Capmul MCM 50 mgA/mL, 1 mL into 10 mL 0.1 N HCl, 120 minutes, expected 5.00) stood at 0.31 mgA/ mL. For the same compound, the “Concentration of sertraline in non-aqueous layer” value in data set [2] (Capmul MCM 50 mgA/mL, 1 mL into 10 mL Phosphate buffered saline pH 5.8, 15 minutes) was found to be 48 mgA/ mL. In addition, the “Concentration of sertraline in aqueous layer” value in data set [2] (Capmul MCM 50 mgA/mL, 1 mL into 10 mL Phosphate buffered saline pH 5.8, 15 minutes, expected 5.00) came to 0.18 mgA/ mL. The “Concentration of sertraline in non-aqueous layer” value in data set [2] (Capmul MCM 50 mgA/mL, 1 mL into 10 mL Phosphate buffered saline pH 5.8, 120 minutes) was found to be 48.6 mgA/ mL. Also, the “Concentration of sertraline in aqueous layer” value in data set [2] (Capmul MCM 50 mgA/mL, 1 mL into 10 mL Phosphate buffered saline pH 5.8, 120 minutes, expected 5.00) worked out at 0.16 mgA/ mL. Further, the “precipitation of sertraline” value in data set [2] (Capmul-MCM vehicle) is given as “essentially no precipitation”. Moreover, the “portion of sertraline that remains in solution” value in data set [2] (Capmul-MCM vehicle, 0.1 N HCl or phosphate buffered saline) is on record as > 95 % of added amount. Moreover, the “Concentration of sertraline in aqueous layer” value in data set [2] (PEG 400 50 mgA/mL, 1 mL into 10 mL 0.1 N HCl, 15 minutes, expected 4.55) was found to be 0.6 mgA/ mL. Also, the “Concentration of sertraline in aqueous layer” value in data set [2] (PEG 400 50 mgA/mL, 1 mL into 10 mL 0.1 N HCl, 120 minutes, expected 4.55) was 0.35 mgA/ mL. Besides, the “Concentration of sertraline in aqueous layer” value in data set [2] (PEG 400 50 mgA/mL, 1 mL into 10 mL Phosphate buffered saline pH 5.8, 15 minutes, expected 4.55) is given as 0.16 mgA/ mL. Further, the “Concentration of sertraline in aqueous layer” value in data set [2] (PEG 400 50 mgA/mL, 1 mL into 10 mL Phosphate buffered saline pH 5.8, 120 minutes, expected 4.55) is 0.12 mgA/ mL. Also, the “precipitation of sertraline” value in data set [2] (PEG 400 solution into either 0.1 N HCl or phosphate buffered saline) is listed as “precipitation of a large proportion of sertraline”. In addition, the “Concentration of sertraline in non-aqueous layer” value in data set [2] (Safflower oil 50 mgA/mL, 1 mL into 10 mL 0.1 N HCl, 15 minutes) was determined as 4.8 mgA/ mL. The “Concentration of sertraline in aqueous layer” value in data set [2] (Safflower oil 50 mgA/mL, 1 mL into 10 mL 0.1 N HCl, 15 minutes, expected 5.00) is 0.48 mgA/ mL. In addition, the “Concentration of sertraline in non-aqueous layer” value in data set [2] (Safflower oil 50 mgA/mL, 1 mL into 10 mL 0.1 N HCl, 120 minutes) is recorded as 3.2 mgA/ mL. Also, the “Concentration of sertraline in aqueous layer” value in data set [2] (Safflower oil 50 mgA/mL, 1 mL into 10 mL 0.1 N HCl, 120 minutes, expected 5.00) is listed as 0.48 mgA/ mL. Also, the “Concentration of sertraline in non-aqueous layer” value in data set [2] (Safflower oil 50 mgA/mL, 1 mL into 10 mL Phosphate buffered saline pH 5.8, 15 minutes) was found to be 45 mgA/ mL. In addition, the “Concentration of sertraline in aqueous layer” value in data set [2] (Safflower oil 50 mgA/mL, 1 mL into 10 mL Phosphate buffered saline pH 5.8, 15 minutes, expected 5.00) turned out to be 0.19 mgA/ mL. The “Concentration of sertraline in non-aqueous layer” value in data set [2] (Safflower oil 50 mgA/mL, 1 mL into 10 mL Phosphate buffered saline pH 5.8, 120 minutes) is given as 44.6 mgA/ mL. Further, the “Concentration of sertraline in aqueous layer” value in data set [2] (Safflower oil 50 mgA/mL, 1 mL into 10 mL Phosphate buffered saline pH 5.8, 120 minutes, expected 5.00) turned out to be 0.19 mgA/ mL. The “precipitation of sertraline” value in data set [2] (safflower oil solution added to phosphate buffered saline) was “little or no precipitation”. In data set [2] (safflower oil vehicle, in the presence of 0.1N HCl), the precipitation of sertraline was 81%. Also, the “Equilibrium solubility in Capmul-®MCM” value (capmul-mcm) was above 50 mgA/ml. For the same compound, the “Equilibrium solubility in Captex® 200” value (captex 200) is above 50 mgA/ml. Also, under “miglyol 810”, the “Equilibrium solubility in Migloyol® 810” value was above 50 mgA/ml. Also, under “oleic acid”, the “Equilibrium solubility in Oleic acid” value is reported as above 50 mgA/ml. The solubility in “physchem” (polysorbate-80, organic solvent or mixture) was around 102 mg/mL (≈ 333 mM).
As for `CN[C@H]1CC[C@@H](c2ccc(Cl)c(Cl)c2)c2ccccc21` [Hydrochloride, sertraline hydrochloride], the “Equilibrium solubility in Olive oil” value was <0.01 (below detection limit) mgA/ml and the “Equilibrium solubility in Safflower oil” value is listed as <0.01 (below detection limit) mgA/ml. In data set [3], the “Solubility in Polysorbate-80” value is listed as below 14 mgA/ml. The solubility in the data set “physchem” (capmul-mcm, organic solvent or mixture, Solubility in Capmul-MCM) is around 45 mg/mL. The solubility in the data set “physchem” (safflower oil, organic solvent or mixture, Solubility in Safflower Oil) is below 9 mg/mL.
As usually defined, the Tmax is the time from dosing to the highest level. Take `CN[C@H]1CC[C@@H](c2ccc(Cl)c(Cl)c2)c2ccccc21` [sertraline]: the half-time for absorption entry in data set [4] is “less than 27.7 minutes”. Further, in data set [5], the time of peak concentration (Tmax) is 6 to 7 h.
With sertraline acetate, the “appearance of saturated solution at physiological chloride concentrations” value in data set [6] is “thick pasty solid which does not flow”.
With sertraline lactate, the “appearance of saturated solution at physiological chloride concentrations” value in data set [6] is given as “thick pasty solid which does not flow”.
